According to patent US20140066394A1, “Substituted 6-(Benzylamino) Purine Riboside Derivatives, Use Thereof and Compositions Containing These Derivatives” (Biopatterns, S.R.O, priority 2009, published 2014):

Experiments:
β-adrenergic receptors = experiment: Isoproterenol-induced cAMP synthesis in rat C6 glioma (anti-inflammatory activity); assay type: cell-based; conditions: for Effect (modulation of isoproterenol-induced cAMP synthesis): added simultaneously with (−)-isoproterenol; for IC50: cellular cAMP by enzyme immunoassay, dose-response curve in duplicate, read-out: I50
Method: Anti-inflammatory activity of several of the 2-substituted 6-benzylaminopurine riboside derivatives of this invention was determined; kinetin riboside was also evaluated as a control. Rat C6 glioma (ATCC No. CCL107) was cultivated in monolayer in serum-free chemically defined medium containing Ham's F10/minimal essential medium (1:1 v/v), 2 mM L-glutamine, 1% (v/v) minimal essential medium vitamins (100×), 1% (v/v) minimal essential medium nonessential amino acids (100×), 100 U/mL penicillin, […], and 30 nM sodium selenite. Incubation was performed at 37° C. in a humidified atmosphere. The assays were performed in the logaritmic growth phase at a density of 2.5×10^5 cells/cm^2.
Intracellular cAMP synthesis was induced by addition of 5 mM (−)-isoproterenol; various amounts of test compounds were added at the same time as the (−)-isoproterenol. After […] incubation at 37° C., the medium was removed and the cellular amount of cAMP was determined using the cAMP-enzyme immunoassay kit from Amersham. The I50 value was determined from a dose-response curve in duplicate. The effect of nine purine analogues was measured after simultaneous addition with isoproterenol.
As P2Y1-like and A2 purinergic receptors, negatively and positively coupled to adenylate cyclase respectively, are present on rat C6 glioma as to be determined if the modulation of the synthesis of cAMP is due to inhibition of the activation of β-adrenergic receptors by isoproterenol are due to activation of purinergic receptors.

[1] = tested on: human myeloid leukemia K-562; experiment: In vitro cytotoxicity, Calcein AM assay, K-562; assay type: cell-based
Excerpt: (§1) Low cytotoxicity of the compounds is the major property determining the cosmetic use. One of the parameters used, as the basis for cytotoxicity assays, is the metabolic activity of viable cells. For example, a microtiter assay, which uses the Calcein AM, is now widely used to quantitate cell proliferation and cytotoxicity. For instance, this assay is used in drug screening programs and in chemosensitivity testing. Because only metabolically active cells cleave Calcein AM, these assays detect viable cells exclusively. The quantity of […] Calcein AM corresponds to the number of vital cells in the culture.
(§2) Human T-lymphoblastic leukemia cell line CEM; promyelocytic HL-60 and monocytic U937 leukemias; breast carcinoma cell lines MCF-7, BT549, MDA-MB-231; glioblastoma U87MG cells; cervical carcinoma cells HELA; sarcoma cells U2OS and Saos2; hepatocellular carcinoma HepG2; mouse fibroblasts NIH3T3; mouse immortalized bone marrow macrophages B2.4 and B10A.4; P388D1 and L1210 leukemia; B16 and B16F10 melanomas; human osteosarcoma HOS; human myeloid leukemia K-562; human skin melanoma G-361 were used for routine screening of compounds. The cells were maintained in Nunc/Corning 80 cm^2 plastic tissue culture flasks and cultured in cell culture medium (DMEM with 5 g/l glucose, 2 mM glutamine, 100 U/mL penicillin, 100 μg/mL streptomycin, 10% fetal calf serum and sodium bicarbonate).
(§3) The cell suspensions that were prepared and diluted according to the particular cell type and the expected target cell density (2.500-30.000 cells per well based on cell growth characteristics) were added by pipette ([…]) into 96/well microtiter plates. Inoculates were allowed a pre-incubation period of 24 hours at 37° C. and 5% CO2 for stabilisation. Four-fold dilutions of the intended test concentration were added at time zero in 20 μl aliquots to the microtiter plate wells. Usually, the compound tested was evaluated at six 4-fold dilutions. In routine testing, the highest well concentration was 100 μM, but it can be the matter of change dependent on the agent. All drug concentrations were examined in duplicates. Incubations of cells with the tested compounds lasted for 72 hours at 37° C., in 5% CO2 atmosphere and 100% humidity. At the end of the incubation period, the cells were assayed by using Calcein AM. Ten microliters of the stock solution were pipetted into each well and incubated for 1 hour. Fluorescence (FD) was measured with the Labsystem FIA Reader Fluoroscan Ascent (UK). The tumour cell survival (GI50) was calculated using the following equitation: TCS=(FDdrug exposed well/mean FDeontrol wells)×100%. The GI50 value, the drug concentration lethal to 50% of the tumour cells, was calculated from the obtained dose response curves.
(§4) Zero cytotoxicity of the novel compounds is the basic prerequisite for agricultural and tumor-unrelated applications. The cytoxicity of the novel compounds was tested on a panel of cell lines of different histogenetic and species origin (Table 9). We show herein that equal activities were found in all tumour cell lines tested, however, the non-malignant cells, e.g. NIH3T3 fibroblasts and normal human lymphocytes, were resistant to 2,6-disubstituted purine ribosides induced cytotoxicity. The compounds listed in Tab. 9 can be divided into 2 groups. The first group contains “classical cytokinins” represented by 6-substituted purine ribosides (which are known in the prior art). The second group contains the novel 2,6-disubstituted derivatives of these compounds. […] GI50 for NIH3T3 fibroblasts and normal human lymphocytes was always higher than 100 μM. The novel derivatives show no toxicity to normal and tumour cells in concentrations about 100 μM and thus are more suitable for agricultural applications than “classical cytokinins” (6-substituted purine riboside derivatives).

[2] = tested on: breast carcinoma cell line MCF-7; experiment: In vitro cytotoxicity, Calcein AM assay, MCF7; assay type: cell-based, human
Excerpt: as §1, §2, §3, §4

[3] = tested on: human skin melanoma G-361; experiment: In vitro cytotoxicity, Calcein AM assay, G-361; assay type: cell-based
Excerpt: as §1, §2, §3, §4

human osteosarcoma HOS = experiment: In vitro cytotoxicity, Calcein AM assay, HOS; assay type: cell-based; conditions: 72 hours
Excerpt: as §1, §2, §3, §4

[4] = tested on: Human T-lymphoblastic leukemia cell line CEM; experiment: In vitro cytotoxicity, Calcein AM assay, CEM; assay type: cell-based; conditions: 72 hours
Excerpt: as §1, §2, §3, §4

[5] = tested on: promyelocytic HL-60 leukemia; experiment: In vitro cytotoxicity, Calcein AM assay, HL60; assay type: cell-based, human
Excerpt: as §1, §2, §3, §4

[6] = tested on: cytokinin-dependent tobacco callus Nicotiana tabacum L. cv. Wisconsin 38; experiment: Tobacco callus bioassay (stimulation of plant cell division); assay type: cell-based
Method: Cytokinin-dependent tobacco callus Nicotiana tabacum L. cv. Wisconsin 38 was maintained at 25° C. in darkness on modified MS medium, containing per 1 liter: 4 μmol of nicotinic acid, 2.4 μmol of pyridoxine hydrochloride, 1.2 μmol of thiamine, 26.6 μmol of glycine, 1.37 μmol of glutamine, 1.8 μmol of myo-inositol, 30 g of sucrose, 8 g of agar, 5.37 μmol of NAA and 0.5 μmol of the compound tested. Subcultivation was carried out every three weeks. Fourteen days before the bioassay, the callus tissue was transferred to the media without the compound tested. The biological activity was determined from the increase of the fresh callus weight after four weeks of cultivation. Five replicates were prepared for each concentration of the compound tested and the entire test was repeated twice. From the obtained data, the concentration with the highest activity was selected for each compound tested. Relative activity of the compound at this concentration was calculated (Table 8). The compounds to be tested were dissolved in dimethylsulfoxide (DMSO) and the solution brought up to 10^−3M with distilled water. […] The compounds listed in Table 8 are compared to a “classical cytokinin” kinetin riboside (compound known in the prior art—C=control).

Effect (modulation of isoproterenol-induced cAMP synthesis) (β-adrenergic receptors) | IC50 (β-adrenergic receptors) | SMILES | GI50 ([1]; 72 hours) | GI50 ([2]; 72 hours) | GI50 ([3]; 72 hours) | GI50 (human osteosarcoma HOS) | GI50 [4] | GI50 ([5]; 72 hours) | concentration with highest activity ([6]; increase of fresh callus weight after four weeks, tested 10^−8 M to 10^−4 M) | activity (%) [10^−5 mol · l^−1 C = 100%] ([6]; relative activity at the concentration with highest activity, kinetin riboside at 10^−5 mol/l = 100%) | GI50 ([1]; Homo sapiens, K562, 72 hours) | GI50 ([2]; Homo sapiens, MCF7, 72 hours) | GI50 ([3]; Homo sapiens, G-361, 72 hours) | GI50 (human osteosarcoma HOS; Homo sapiens) | GI50 ([4]; Homo sapiens) | GI50 ([5]; Homo sapiens, HL-60, 72 hours)
inhibition | 12.4 ± 2 µM | OC[C@H]1O[C@@H](n2cnc3c(NCc4cc(Cl)ccc4O)nc(Cl)nc32)[C@H](O)[C@@H]1O [Compound 29, 2-Chloro-6-(2-hydroxy-5-chlorobenzylamino)purine riboside] | > 100 µM | > 100 µM | > 100 µM | > 100 µM | > 100 µM | > 100 µM |  |  |  |  |  |  |  | 
inhibition | 18.7 ± 4 µM | Cc1cccc(CNc2nc(Cl)nc3c2ncn3C2OC(CO)C(O)C2O)c1O (stereo not drawn) [Compound 13] | > 100 µM | > 100 µM | > 100 µM | > 100 µM | > 100 µM | > 100 µM |  |  |  |  |  |  |  | 
inhibition | 15.7 ± 4 µM | OCC1OC(n2cnc3c(NCc4cc(F)ccc4O)nc(Cl)nc32)C(O)C1O (stereo not drawn) [Compound 30] |  |  |  |  |  |  | 10^−6 mol · l^−1 | 108.6 (±3) % | > 100 µM | > 100 µM | > 100 µM | > 100 µM | > 100 µM | > 100 µM

Second part, the molecule before the results:

SMILES | Effect (modulation of isoproterenol-induced cAMP synthesis) (β-adrenergic receptors) | IC50 (β-adrenergic receptors) | GI50 ([1]; 72 hours) | GI50 ([2]; 72 hours) | GI50 ([3]; 72 hours) | GI50 (human osteosarcoma HOS) | GI50 [4] | GI50 ([5]; 72 hours) | concentration with highest activity ([6]; increase of fresh callus weight after four weeks, tested 10^−8 M to 10^−4 M) | activity (%) [10^−5 mol · l^−1 C = 100%] ([6]; relative activity at the concentration with highest activity, kinetin riboside at 10^−5 mol/l = 100%) | GI50 ([1]; Homo sapiens, K562, 72 hours) | GI50 ([2]; Homo sapiens, MCF7, 72 hours) | GI50 ([3]; Homo sapiens, G-361, 72 hours) | GI50 (human osteosarcoma HOS; Homo sapiens) | GI50 ([4]; Homo sapiens) | GI50 ([5]; Homo sapiens, HL-60, 72 hours)
OCC1OC(n2cnc3c(NCc4cc(F)ccc4O)nc(F)nc32)C(O)C1O (stereo not drawn) [Compound 50] | inhibition | 13.6 ± 3 µM |  |  |  |  |  |  |  |  |  |  |  |  |  | 
COc1ccc(CNc2nc(Cl)nc3c2ncn3C2OC(CO)C(O)C2O)c(O)c1 (stereo not drawn) [Compound 11] |  |  | > 100 µM | > 100 µM | > 100 µM | > 100 µM | > 100 µM | > 100 µM |  |  |  |  |  |  |  | 
OCC1OC(n2cnc3c(NCc4cc(Cl)ccc4O)ncnc32)C(O)C1O (stereo not drawn) [2-hydroxy-5-chlorobenzylamino, reference compound] |  |  | 36 µM | 32 µM | > 100 µM | > 100 µM | 2.4 µM | 1.6 µM |  |  |  |  |  |  |  | 
COc1cccc(CNc2ncnc3c2ncn3C2OC(CO)C(O)C2O)c1O (stereo not drawn) [2-hydroxy-3-methoxybenzylamino, reference compound] |  |  | > 100 µM | > 100 µM | > 100 µM | > 100 µM | 40 µM | 9.5 µM |  |  |  |  |  |  |  | 
COc1cccc(CNc2nc(F)nc3c2ncn3C2OC(CO)C(O)C2O)c1O (stereo not drawn) [Compound 40] | inhibition | 4.2 ± 2 µM |  |  |  |  |  |  |  |  |  |  |  |  |  | 
COc1c(O)cccc1CNc1ncnc2c1ncn2[C@@H]1O[C@H](CO)[C@@H](O)[C@H]1O [2-methoxy-3-hydroxybenzylamino, reference compound] |  |  | 16.5 µM | > 100 µM | > 100 µM | > 100 µM | 1.9 µM | 10 µM |  |  |  |  |  |  |  | 
